System: HeLa cells
Test: Aptamer uptake, confocal fluorescence microscopy of live HeLa cells
Type: cell-based
Conditions: 200 nM Cy5-labelled aptamer, increasing lengths of time, Lysotracker and early endosome GFP stains
Protocol: Cells were imaged by confocal microscopy after treatment with 200 nM Cy5-labelled E07 min A-1.0 aptamer (A-1.0) or 200 nM Cy5-labelled constructs (SQ1-1000-001). For aptamer uptake experiments, 1×10^4 cells were plated in each well of a μ-Slide 8 well ibiditreat chamber (IBIDI), in 300 μL DMEM containing 10% v/v FBS. For uptake experiments, 3.4×10^3 cells (HeLa, MDA-MB-231 and A549 cells) or 6.8×10^3 cells (Mcf-7) were plated in each well of a μ-Slide 18 well ibiditreat chamber (IBIDI), in 100 μL DMEM containing 10% v/v FBS. 5 hours after cells had adhered and 48 hours before imaging, media was replaced with 50 particles per cell (PPC) CellLight early endosome-GFP (Thermo Fisher Scientific) for overnight incubation at 37° C. Additionally, 200 μL DMEM aliquots containing 200 nM aptamer were added to cells at corresponding incubation time points. Subsequently, media was removed and replaced with 60 nM LysoTracker Red DND-99 (Thermo Fisher Scientific) in 100-200 μL DMEM for 1 hour at 37° C. Cells were then washed once with Hank's Balanced Salt Solution (HBSS) (Gibco). Finally, 100-200 μL imaging media (HBSS buffered with 20 mM 4-(2-hydroxyethyl)-1-piperazineethanesulfonic acid (HEPES), adjusted to pH 7.4) was added to cells. Confocal images were captured with an EVOS microscope or a Zeiss LSM510 laser scanning microscope using 60× oil objective lens. […]

A-1.0: E07min aptamer, EGFR-targeting, 5′ Cy5, 2′F U, C, SEQ ID 75 (GGACGGAUUUAAUCGCCGUAGAAAAGCAUGUCAAAGCCGGAACCGUCC; 5′ Cy5; 2′F U and C; 2′ fluorine)
intracellular localisation after internalisation: accumulate in lysosomes after internalisation

Source: patent US11357865B2, “Compositions containing nucleic acid nanoparticles with modular functionality” (Sixfold Bioscience Ltd., priority 2020, dated 2022)
